Experimental data: patent publication US11378572B2, “Therapeutic agent for immune cell migration-caused disease and method for screening same” (ZYMEDI CO., LTD., priority 2017, dated 2022)
“Also recorded” adds a separate entry of the source.

Experiments:
KRS = target: T1, KRS (Mus musculus, UniProt Q99MN1); assay: KRS level in plasma membrane/cytosol fractions by western blot (KRS translocation to the plasma membrane); type: cell-based; details: RAW 264.7 cells, laminin 421 1 μg/ml, 100 nM compound, 12 hours
T1 construct: KRS, which is expressed in monocytes/macrophages and usually present in the cytoplasmic domain, translocates to the plasma membrane by LN421 treatment; endogenous in cells; host or cells: RAW 264.7
T1 sequence (Q99MN1 whole entry, the tested form may be a part): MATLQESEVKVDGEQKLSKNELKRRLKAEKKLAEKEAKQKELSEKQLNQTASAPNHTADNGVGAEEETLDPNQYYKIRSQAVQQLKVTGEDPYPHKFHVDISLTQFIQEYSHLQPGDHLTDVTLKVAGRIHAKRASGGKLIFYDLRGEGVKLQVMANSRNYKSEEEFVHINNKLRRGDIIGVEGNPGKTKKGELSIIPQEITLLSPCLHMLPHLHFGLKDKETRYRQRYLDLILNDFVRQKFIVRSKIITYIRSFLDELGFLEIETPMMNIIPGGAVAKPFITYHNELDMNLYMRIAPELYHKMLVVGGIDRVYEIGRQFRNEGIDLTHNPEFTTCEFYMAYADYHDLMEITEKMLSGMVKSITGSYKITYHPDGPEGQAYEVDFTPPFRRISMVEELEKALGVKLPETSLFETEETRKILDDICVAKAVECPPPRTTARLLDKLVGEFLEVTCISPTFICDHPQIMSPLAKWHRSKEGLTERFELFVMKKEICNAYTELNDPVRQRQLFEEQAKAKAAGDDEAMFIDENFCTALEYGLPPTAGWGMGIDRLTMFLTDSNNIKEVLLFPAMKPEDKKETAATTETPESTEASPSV
Experimental: After dispensing RAW 264.7 cells (2×10^6 cells) in 100 mm dish and incubating for 18 hours, cells were treated with LN421 l g/ml in serum free DMEM media and harvested at 0 hour, 12 hour, 24 hour. Proteins of RAW 264.7 cells were separated into the cytosol and membrane fractions using ProteoExtract Subcellular Proteome Extraction Kit (Calbiotech, cat #539790). Obtained proteins were electrophoresed and transferred to PVDF membrane (Milipore) and blocked with 3% skim milk. KRS was then detected by western blot. Specifically, KRS polyclonal antibody (rabbit, Neomics, Co. Ltd. #NMS-01-0005) was added and reacted for 1 hour. Unbound antibody was removed and the membrane was added and reacted with anti-rabbit secondary antibody (ThermoFisher Scientific, #31460). After reacting with the secondary antibody, films were exposed in the dark room using ECL reagent as a substrate. […]
First, in order to determine whether various KRS inhibitor candidates could exert inhibitory effect on the KRS translocation to the plasma membrane, RAW 264.7 cells (2×10^6 cells) were dispensed in 100 mm dishes and incubated for 18 hours, followed by treatment with laminin 421 1 μg/ml in serum free DMEM, and 100 nM of each of various KRS inhibitor candidates, and cells were further incubated for 12 hours. […] Afterwards, KRS was detected by western blot, and the specific method were as described in Example 3. […]

RAW 264.7 cells = assay: Transwell migration assay of monocytes/macrophages; type: cell-based; details: laminin 421 1 μg/ml, 30 nM-3 μM, 24 hours, concentration-dependent
Experimental: Among several extracellular matrix (ECM), it was examined which ECM promotes the migration and infiltration of immune cells, typically monocytes/macrophages. A transwell migration assay was performed using collagen (Col), fibronectin (FN) and laminin (LN) as extracellular matrices, and detailed methods were as follows. Transwells (Corning, #3421-5 mm) were coated with gelatin (0.5 mg/ml) and RAW 264.7 cells (1×10^5 cells/well) were seeded into the top chambers. Serum free DMEM (500 μl) containing 10 μg/ml of laminin (laminin mixture, Biolamina), fibronectin or collagen, respectively, was placed in the bottom chambers. After 24 hours, cells were fixed with 70% methanol for 30 minutes and stained with 50% hematoxylin for 30 minutes. After removing non-migrating cells from the top of the membrane with a cotton swab, the membrane was taken and mounted on the slide. Migrating cells on the underside of the membrane were observed and quantified under a high magnification microscope.
Effect of laminin subtypes on the immune cell migration and infiltration was evaluated. A transwell migration assay was performed in the same manner as in Example 1 using LN111, LN211, LN221, LN411, LN421, LN511, and LN521 as various laminin subtype proteins (purchased from Biolamina). Specific sequences of laminin subtypes are referred to α4 chain of SEQ ID NO:4, α2 chain of SEQ ID NO: 10, α5 chain of SEQ ID NO: 11, β2 chain of SEQ ID NO:6, β1 chain of SEQ ID NO: 12, γ1 chain of SEQ ID NO: 8. according to the chain forming each laminin subtype,
For each of the transformed macrophages, a transwell migration assay was performed in the same manner as in Example 1 using 1 μg/ml of laminin 421.
Thus identified agents as inhibiting the translocation of KRS to the plasma membrane was added to the LN421-treated macrophages to perform a transwell migration assay. […] Migrating cells on the underside of the membrane were observed and quantified under a high magnification microscope. […]

In the case of COc1ccc(CCN(Cc2ccc(C(=O)O)cc2)c2nc3cccc(F)c3s2)cc1 [BC-KI-00053, 4-({(7-fluorobenzo[d]thiazol-2-yl)[2-(4-methoxyphenyl)ethyl]amino}methyl)benzoic acid], the “level of KRS in the plasma membrane region” value (KRS) was “reversed; also recorded: significantly lowered” and the LN421-specific monocyte/macrophage migration (RAW 264.7 cells) was “noticeably suppressed; also recorded: significantly inhibited”.
